Experimental data published in ChEMBL document CHEMBL1201862, “PubChem BioAssay data set” (2004).
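Cultured in 96-well plates, cells were exposed to test compound for 48 hours across five concentrations. The concentration for 50% growth inhibition is given as GI50.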 The source made the active and inactive calls. Rule as the data show it: active = GI50 up to about 1.1 µM and inactive = higher.

What was measured:
Assay in all cases: NCI-60 cell line screen, 48 h
[1] = test system: 786-0
[2] = test system: A549
[3] = test system: BT-549
[4] = test system: CAKI-1
[5] = test system: DLD-1
[6] = test system: DMS-114
[7] = test system: DU-145
[8] = test system: HCC 2998
[9] = test system: HCT-116
[10] = test system: HCT-15
[11] = test system: HOP-18
[12] = test system: HOP-62
[13] = test system: HOP-92
[14] = test system: HT-29
[15] = test system: Hs-578T
[16] = test system: IGROV-1
[17] = test system: KM-20L2
[18] = test system: KM12
[19] = test system: MDA-MB-435
[20] = test system: MDA-N
[21] = test system: NCI-H226
[22] = test system: NCI-H23
[23] = test system: NCI-H460
[24] = test system: NCI/ADR-RES
[25] = test system: OVCAR-3
[26] = test system: OVCAR-5
[27] = test system: PC-3
[28] = test system: SF-268
[29] = test system: SF-295
[30] = test system: SN12C
[31] = test system: SNB-78
[32] = test system: SR
[33] = test system: SW-620
[34] = test system: T47D
[35] = test system: UACC-257
[36] = test system: A498
[37] = test system: CCRF-CEM
[38] = test system: COLO 205
[39] = test system: DMS-273
[40] = test system: EKVX
[41] = test system: HL-60
[42] = test system: K562
[43] = test system: LOX IMVI
[44] = test system: M19-MEL
[45] = test system: MCF7
[46] = test system: MOLT-4
[47] = test system: Malme-3M
[48] = test system: NCI-H522
[49] = test system: OVCAR-4
[50] = test system: OVCAR-8
[51] = test system: RPMI-8226
[52] = test system: RXF 393
[53] = test system: SF-539
[54] = test system: SK-MEL-28
[55] = test system: SK-MEL-2
[56] = test system: SK-MEL-5
[57] = test system: SK-OV-3
[58] = test system: SNB-19
[59] = test system: SNB-75
[60] = test system: U-251
[61] = test system: UACC-62
[62] = test system: UO-31
[63] = test system: XF498

SMILES: CNCCNc1ccc2c3c(nn2CCNCCO)-c2c(O)ccc(O)c2C(=O)c13
- GI50 [1]: 0.08 µM (active)
- GI50 [2]: 0.0597 µM (active)
- GI50 [3]: 0.109 µM (active)
- GI50 [4]: 0.101 µM (active)
- GI50 [5]: 1.26 µM (inactive)
- GI50 [6]: 0.0575 µM (active)
- GI50 [7]: 0.0713 µM (active)
- GI50 [8]: 0.2 µM (active)
- GI50 [9]: 0.346 µM (active)
- GI50 [10]: 1.72 µM
- GI50 [11]: 0.508 µM (active)
- GI50 [12]: 0.0179 µM (active)
- GI50 [13]: 0.173 µM (active)
- GI50 [14]: 0.378 µM (active)
- GI50 [15]: 0.166 µM (active)
- GI50 [16]: 0.454 µM (active)
- GI50 [17]: 0.55 µM (active)
- GI50 [18]: 0.211 µM (active)
- GI50 [19]: 0.923 µM (active)
- GI50 [20]: 0.966 µM (active)
- GI50 [21]: 0.0227 µM (active)
- GI50 [22]: 0.111 µM (active)
- GI50 [23]: 0.0139 µM (active)
- GI50 [24]: 20.8 µM (inactive)
- GI50 [25]: 1.03 µM (active)
- GI50 [26]: 0.468 µM (active)
- GI50 [27]: 0.535 µM (active)
- GI50 [28]: 0.0601 µM (active)
- GI50 [29]: 0.0681 µM (active)
- GI50 [30]: 0.0397 µM (active)
- GI50 [31]: 0.526 µM (active)
- GI50 [32]: 0.0519 µM (active)
- GI50 [33]: 0.273 µM (active)
- GI50 [34]: 0.635 µM (active)
- GI50 [35]: 1.81 µM (inactive)

SMILES: CCCCCCc1ccc(O)cc1O [HEXYLRESORCINOL]
- GI50 [36]: > 100 µM (inactive)
- GI50 [2]: 40.6 µM (inactive)
- GI50 [37]: 32 µM (inactive)
- GI50 [38]: > 100 µM (inactive)
- GI50 [5]: 72.6 µM (inactive)
- GI50 [39]: > 72.6 µM (inactive)
- GI50 [40]: > 64.7 µM (inactive)
- GI50 [8]: > 100 µM (inactive)
- GI50 [9]: 53.5 µM (inactive)
- GI50 [10]: 59.8 µM
- GI50 [41]: 30.8 µM (inactive)
- GI50 [11]: 28.2 µM (inactive)
- GI50 [12]: 57.8 µM (inactive)
- GI50 [13]: 30.6 µM (inactive)
- GI50 [14]: > 100 µM (inactive)
- GI50 [16]: 45.5 µM (inactive)
- GI50 [42]: 44.8 µM (inactive)
- GI50 [17]: > 100 µM (inactive)
- GI50 [18]: 62.2 µM (inactive)
- GI50 [43]: > 100 µM (inactive)
- GI50 [44]: 42.8 µM (inactive)
- GI50 [45]: 81.1 µM (inactive)
- GI50 [46]: 22.9 µM (inactive)
- GI50 [47]: 48 µM (inactive)
- GI50 [21]: 57.8 µM (inactive)
- GI50 [22]: 47.3 µM (inactive)
- GI50 [23]: 58.3 µM (inactive)
- GI50 [48]: 36.1 µM (inactive)
- GI50 [24]: 38.4 µM (inactive)
- GI50 [25]: 36.4 µM (inactive)
- GI50 [49]: 48.5 µM (inactive)
- GI50 [26]: > 65.6 µM (inactive)
- GI50 [50]: > 69 µM (inactive)
- GI50 [51]: 32.1 µM (inactive)
- GI50 [52]: > 75.2 µM (inactive)
- GI50 [28]: 87.3 µM (inactive)
- GI50 [29]: 46.8 µM (inactive)
- GI50 [53]: > 80.7 µM (inactive)
- GI50 [54]: > 71.9 µM (inactive)
- GI50 [55]: 26.1 µM (inactive)
- GI50 [56]: 31.8 µM (inactive)
- GI50 [57]: > 100 µM (inactive)
- GI50 [30]: 66.4 µM (inactive)
- GI50 [58]: 43.7 µM (inactive)
- GI50 [59]: 28.8 µM (inactive)
- GI50 [31]: > 72.8 µM (inactive)
- GI50 [33]: > 100 µM (inactive)
- GI50 [60]: 40.4 µM (inactive)
- GI50 [35]: 39.5 µM (inactive)
- GI50 [61]: 34.4 µM (inactive)
- GI50 [62]: 24.4 µM (inactive)
- GI50 [63]: > 65.3 µM (inactive)
